Reference: patent US20220402917A1, “COMPOUND AS SMALL MOLECULE INHIBITOR PD-1/PD-L1 AND APPLICATION THEREOF” (MEDSHINE DISCOVERY INC., priority 2019, published 2022)

What was measured:
[1] = target: T1, PD-L1 in MDA-MR-231 cells (Homo sapiens, UniProt Q9NZQ7); experiment: Effect on expression level of PD-L1 in MDA-MR-231 cells (FACS); format: cell-based; settings: 24 hours incubation, FACS detection of cell surface PD-L1
T1 construct: endogenous in cells; host or cells: MDA-MB-231
Procedure, shortened: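 MDA-MB-231 cells (1×10^5/well) were incubated 24 h at 37 °C with 5-fold serially diluted compounds. Cells were detached with 10 mM EDTA, then stained with anti-human PD-L1 and LIVE/DEAD dye (4 °C, 30 min) and fixed. Surface PD-L1 was measured by flow cytometry.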

[2] = Pharmacokinetic test in C57BL/6 mice; format: in vivo; settings: mouse, plasma, male C57BL/6 mice
Experimental: Experimental Example 4: Pharmacokinetic Test
Experimental purpose: To study the pharmacokinetics of compounds in C57BL/6 mice.
Experimental materials: C57BL/6 mice (male, 8 weeks old, body weight 25 g-30 g)
Experimental operation: The pharmacokinetic characteristics of rodents after intravenous (IV) and oral (PO) administration of compounds were tested in standard protocols. In the experiment, the candidate compounds were formulated into 1 mg/mL clear solutions, and administered to mice via a single intravenous injection and oral administration. The vehicle of intravenous and oral administration was 5% DMSO/5% polyethylene glycol 15-hydroxystearate (Solutol)/90% aqueous solution. Four male C57BL/6 mice were used in the experiment, wherein two mice were administered intravenously at a dose of 1 mg/kg, and the plasma samples were collected 0.0833, 0.25, 0.5, 1, 2, 4, 6, 8 and 24 h after administration, the other two mice were given oral gavage at a dose of 10 mg/kg, and the plasma samples were collected 0.25, 0.5, 1, 2, 4, 6, 8, and 24 h after administration. Whole blood samples within 24 hours were collected, centrifuged at 3000 g for 15 minutes, and the supernatant was separated to obtain plasma samples. Acetonitrile solution containing internal standard was added thereto to precipitate proteins, the mixture was thoroughly mixed and centrifuged to obtain the supernatant for injection. The plasma concentration was quantified by LC-MS/MS analysis method, and the pharmacokinetic parameters were calculated, such as peak concentration (Cmax), clearance (CL), half-life (T1/2), […] (Vdss), area under the drug-time curve (AUC0-last), bioavailability (F) and so on.

T1 sequence (Q9NZQ7 19-290): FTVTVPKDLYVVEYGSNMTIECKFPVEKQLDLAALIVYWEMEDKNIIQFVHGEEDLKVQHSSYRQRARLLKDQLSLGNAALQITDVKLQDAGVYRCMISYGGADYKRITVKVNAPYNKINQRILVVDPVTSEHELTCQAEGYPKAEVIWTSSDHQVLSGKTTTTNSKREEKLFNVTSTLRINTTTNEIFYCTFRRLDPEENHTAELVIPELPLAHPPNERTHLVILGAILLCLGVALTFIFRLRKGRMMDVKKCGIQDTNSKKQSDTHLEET

- IC50 [1]: 5.73 nM
- bioavailability ([2]; PO 10 mg/kg vs IV 1 mg/kg, read-out: Bioavailability F): 34.9%
- Cmax ([2]; IV 1 mg/kg, PO 10 mg/kg (route not given for Cmax), read-out: Peak concentration Cmax): 117 nM
- clearance ([2]; IV 1 mg/kg, read-out: Clearance CL): 98.4 mL/min/kg
- half-life ([2]; IV 1 mg/kg, read-out: Half-life T1/2 (IV) (converted)): 11.6 h
- Vd ([2]; IV 1 mg/kg, read-out: Tissue distribution Vdss): 65.6 L/kg
- AUC(0-t) ([2]; PO 10 mg/kg, read-out: Area under the drug-time curve AUC0-last PO): 0.796 µM·h
Structure (SMILES): COc1nc(-c2cccc(-c3cccc(NC(=O)c4cc(C)c5c(n4)CN(CCO)CC5)c3Cl)c2Cl)cnc1CN1CC(O)C1 [Compound 21]
